# Earlier results, collected in patent publication US4127538A, “Novel pentacosapeptides, intermediates therefor and pharmaceutical compositions and methods employing said pentacosapeptides” (priority 1977, dated 1978).
# What was measured:
# [1] = test system: partially purified brain opiate receptor sites
# [2] = injected directly into the brain of the rat
substance,measurement,setting,value
H-Tyr-Gly-Gly-Phe-Met-OH [methionine enkephalin],binding to partially purified brain opiate receptor sites,[1],binds stereo-specifically
same,analgesic effect,[2],weak analgesic agent of short duration
